Test results published in patent US6525001B1, “Substituted pyrimidine and pyridine herbicides” (Mid-American Commercialization Corporation, priority 1997, dated 2003).

What was measured:
Assay type in all cases: in vivo
[1] = test system: blackgrass (Alopecurus myosuroides); test: Test B pre-/postemergence; design: key: 0 is no effect; 10 is complete control
How it was run: (§1)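 Response scores run from 0, meaning no effect, to 10, meaning complete control, assigned by eye relative to controls twelve to sixteen days after spraying. Treatment was both preemergence on planted seed and postemergence on plants at the 1- to 4-leaf stage.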

[2] = test system: cocklebur (Xanthium strumarium); test: Test B pre-/postemergence; design: key: 0 is no effect; 10 is complete control; details: for Plant response rating, Cocklebur: Postemergence
How it was run: as §1

[3] = test system: corn (Zea mays); test: Test B pre-/postemergence; design: key: 0 is no effect; 10 is complete control
How it was run: as §1

[4] = test system: crabgrass (Digitaria sanguinalis); test: Test B pre-/postemergence; design: key: 0 is no effect; 10 is complete control
How it was run: as §1

[5] = test system: pigweed (Amaranthus retroflexus); test: Test B pre-/postemergence; design: key: 0 is no effect; 10 is complete control
How it was run: as §1

[6] = test system: purple nutsedge (Cyperus rotundus); test: Test B pre-/postemergence; design: key: 0 is no effect; 10 is complete control
How it was run: as §1

[7] = test system: rape (Brassica napus); test: Test B pre-/postemergence; design: key: 0 is no effect; 10 is complete control
How it was run: as §1

[8] = test system: soybean (Glycine max); test: Test B pre-/postemergence; design: key: 0 is no effect; 10 is complete control
How it was run: as §1

[9] = test system: sugar beet (Beta vulgaris); test: Test B pre-/postemergence; design: key: 0 is no effect; 10 is complete control
How it was run: as §1

[10] = test system: velvetleaf (Abutilon theophrasti); test: Test B pre-/postemergence; design: key: 0 is no effect; 10 is complete control
How it was run: as §1

[11] = test system: wheat (Triticum aestivum); test: Test B pre-/postemergence; design: key: 0 is no effect; 10 is complete control
How it was run: as §1

[12] = test system: bamyardgrass (Echinochloa crus-galli); test: Test B flood test
How it was run: (§2)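 Each value is a visual injury score relative to controls, with 10 meaning complete control and 0 no effect. Evaluation took place twelve to sixteen days after the 2-leaf-stage plants were treated and kept in the greenhouse.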

[13] = test system: duck salad (Heteranthera limosa); test: Test B flood test
How it was run: as §2

[14] = test system: rice (Oryza sativa); test: Test B flood test
How it was run: as §2

[15] = test system: smallflower flatsedge (Cyperus difformis); test: Test B flood test
How it was run: as §2

[16] = Rate 62 g/ha, Postemergence (flood test)
[17] = Rate 125 g/ha, Postemergence, flood test
[18] = Rate 250 g/ha, Postemergence (flood test species)

Question: Which results are given for `Cc1cnc(-c2ccc(C(F)(F)F)cc2)nc1Cc1cccc(OC(F)(F)F)c1` [Compound 15]?
Answer: Plant response rating, Blackgrass ([1]; Rate 62 g/ha, Postemergence): 6; Blackgrass plant response rating ([1]; Rate 62 g/ha, Preemergence): 9; Plant response rating, Blackgrass ([1]; Rate 125 g/ha, Postemergence): 9; Blackgrass plant response rating ([1]; Rate 125 g/ha, Preemergence): 10; Plant response rating, Blackgrass ([1]; Rate 250 g/ha, Postemergence): 9; Plant response rating, Blackgrass ([1]; Rate 250 g/ha, Preemergence): 10; Plant response rating, Cocklebur ([2]; Rate 62 g/ha): 9; Plant response rating, Cocklebur ([2]; Rate 125 g/ha): 9; Cocklebur plant response rating ([2]; Rate 125 g/ha, Preemergence): 1; Plant response rating, Cocklebur ([2]; Rate 250 g/ha): 10; Plant response rating, Corn ([3]; Rate 62 g/ha, Postemergence): 3; Corn plant response rating ([3]; Rate 62 g/ha, Preemergence): 1; Plant response rating, Corn ([3]; Rate 125 g/ha, Postemergence): 4; Corn plant response rating ([3]; Rate 125 g/ha, Preemergence): 1; Plant response rating, Corn ([3]; Rate 250 g/ha, Postemergence): 5; Plant response rating, Corn ([3]; Rate 250 g/ha, Preemergence): 2; Plant response rating, Crabgrass ([4]; Rate 62 g/ha, Postemergence): 9; Crabgrass plant response rating ([4]; Rate 62 g/ha, Preemergence): 9; Plant response rating, Crabgrass ([4]; Rate 125 g/ha, Postemergence): 9; Crabgrass plant response rating ([4]; Rate 125 g/ha, Preemergence): 10; Plant response rating, Crabgrass ([4]; Rate 250 g/ha, Postemergence): 9; Plant response rating, Crabgrass ([4]; Rate 250 g/ha, Preemergence): 10; Plant response rating, Redroot pigweed ([5]; Rate 62 g/ha, Postemergence): 9; Redroot pigweed plant response rating ([5]; Rate 62 g/ha, Preemergence): 6; Plant response rating, Redroot pigweed ([5]; Rate 125 g/ha, Postemergence): 9; Redroot pigweed plant response rating ([5]; Rate 125 g/ha, Preemergence): 10; Plant response rating, Redroot pigweed ([5]; Rate 250 g/ha, Postemergence): 9; Plant response rating, Redroot pigweed ([5]; Rate 250 g/ha, Preemergence): 10; Plant response rating, Nutsedge ([6]; Rate 62 g/ha, Postemergence): 0; Nutsedge plant response rating ([6]; Rate 62 g/ha, Preemergence): 0; Plant response rating, Nutsedge ([6]; Rate 125 g/ha, Postemergence): 2; Nutsedge plant response rating ([6]; Rate 125 g/ha, Preemergence): 0; Plant response rating, Nutsedge ([6]; Rate 250 g/ha, Postemergence): 2; Plant response rating, Nutsedge ([6]; Rate 250 g/ha, Preemergence): 2; Plant response rating, Rape ([7]; Rate 62 g/ha, Postemergence): 9; Rape plant response rating ([7]; Rate 62 g/ha, Preemergence): 6; Plant response rating, Rape ([7]; Rate 125 g/ha, Postemergence): 9; Rape plant response rating ([7]; Rate 125 g/ha, Preemergence): 9; Plant response rating, Rape ([7]; Rate 250 g/ha, Postemergence): 9; Plant response rating, Rape ([7]; Rate 250 g/ha, Preemergence): 9; Plant response rating, Soybean ([8]; Rate 62 g/ha, Postemergence): 9; Soybean plant response rating ([8]; Rate 62 g/ha, Preemergence): 0; Plant response rating, Soybean ([8]; Rate 125 g/ha, Postemergence): 9; Soybean plant response rating ([8]; Rate 125 g/ha, Preemergence): 1; Plant response rating, Soybean ([8]; Rate 250 g/ha, Postemergence): 9; Plant response rating, Soybean ([8]; Rate 250 g/ha, Preemergence): 1; Plant response rating, Sugarbeets ([9]; Rate 62 g/ha, Postemergence): 9; Sugarbeets plant response rating ([9]; Rate 62 g/ha, Preemergence): 10; Plant response rating, Sugarbeets ([9]; Rate 125 g/ha, Postemergence): 9; Sugarbeets plant response rating ([9]; Rate 125 g/ha, Preemergence): 10; Plant response rating, Sugarbeets ([9]; Rate 250 g/ha, Postemergence): 10; Plant response rating, Sugarbeets ([9]; Rate 250 g/ha, Preemergence): 10; Plant response rating, Velvetleaf ([10]; Rate 62 g/ha, Postemergence): 5; Velvetleaf plant response rating ([10]; Rate 62 g/ha, Preemergence): 4; Plant response rating, Velvetleaf ([10]; Rate 125 g/ha, Postemergence): 8; Velvetleaf plant response rating ([10]; Rate 125 g/ha, Preemergence): 7; Plant response rating, Velvetleaf ([10]; Rate 250 g/ha, Postemergence): 8; Plant response rating, Velvetleaf ([10]; Rate 250 g/ha, Preemergence): 7; Plant response rating, Wheat ([11]; Rate 62 g/ha, Postemergence): 4; Wheat plant response rating ([11]; Rate 62 g/ha, Preemergence): 2; Plant response rating, Wheat ([11]; Rate 125 g/ha, Postemergence): 4; Wheat plant response rating ([11]; Rate 125 g/ha, Preemergence): 4; Plant response rating, Wheat ([11]; Rate 250 g/ha, Postemergence): 6; Plant response rating, Wheat ([11]; Rate 250 g/ha, Preemergence): 7; Plant response rating, Barnyardgrass [12, 16]: 6; Plant response rating, Barnyardgrass [12, 17]: 8; Plant response rating, Barnyardgrass [12, 18]: 9; Plant response rating, Ducksalad [13, 16]: 6; Plant response rating, Ducksalad [13, 17]: 6; Plant response rating, Ducksalad [13, 18]: 7; Plant response rating, Rice [14, 16]: 6; Plant response rating, Rice [14, 17]: 7; Plant response rating, Rice [14, 18]: 7; Plant response rating, S. Flatsedge [15, 16]: 7; Plant response rating, S. Flatsedge [15, 17]: 8; Plant response rating, S. Flatsedge [15, 18]: 9
